Measurements reported in US11903929B2, “Method for inhibiting dengue virus infection” (FLORIDA STATE UNIVERSITY RESEARCH FOUNDATION, INC., priority 2018, dated 2024).
Read-outs that look alike come from different tables or passages of the source. Where a SMILES comes first, the peptide text is derived from it. [ ]: non-standard residue; d: D form. ξ: configuration not given here. ξLac(3-iPr) = CC(C)CC(O)C(=O)O; NMeV = CN[CH](C(=O)O)C(C)C; NMeA = CN[CH](C)C(=O)O; βAla = NCCC(=O)O

Columns and labels:
dengue virus = assay: Western blot analysis of viral protein levels in dengue virus-infected cells; format: cell-based
Procedure: These 19 compounds were further validated for antiviral activity by a Zika viral production assay and also by analyzing protein production via Western blot in dengue virus-infected cells. Human glioblastoma cells were treated with individual compounds for 1 hour prior to infection with Zika virus or dengue virus for 24 hours. After 24 hours, cellular lysate was harvested for Western blot analysis of viral protein levels (DENV infection), or supernatant collected and used to infect Vero cells in an infectious viral titer assay (ZIKV infection).

Zika virus = assay: Zika viral production assay (infectious viral titer assay on Vero cells); format: cell-based; conditions: read-out: Anti-ZIKV activity IC50
[1] = 1 uM, SNB-19 human glioblastoma cells, compound 1 hour prior to infection, 24 hours infection, Western blot of viral protein
[2] = 10 uM, SNB-19 human glioblastoma cells, compound 1 hour prior to infection, 24 hours infection, Western blot of viral protein
[3] = Zika virus, human glioblastoma cells treated 1 hour prior to infection, 24 hours, supernatant titered on Vero cells, values in E-notation, unit inferred
[4] = Zika virus, human glioblastoma cells treated 1 hour prior to infection, 24 hours, supernatant titered on Vero cells, μM

Compound | Anti-DENV Activity at 1 uM (SNB-19 cells) (dengue virus; [1]) | Anti-DENV Activity at 10 uM (SNB-19 cells) (dengue virus; [2]) | IC50 (Zika virus; [3]) [µM] | also measured
CCCOc1ccc2nc(NC(=O)OC)[nH]c2c1 [NCGC00018238-09, methyl (6-propoxy-1H-benzo[d]imidazol-2 - yl)carbamate] | No | No | 0.000233 | –
COc1cc2c(c(OC)c1OC)-c1ccc(OC)c(=O)cc1[C@@H](NC(C)=O)CC2 [NCGC00025125-18, N-[(7S)-1,2,3,10-tetramethoxy-9-oxo-6,7-dihydro-5H-benzo[a]heptalen-7-yl]acetamide] | No | No | – | –
COc1ccccc1-c1nnc2sc(-c3ccc(N(C)C)cc3)nn12 [NCGC00071621-03, 4-(3-(2-methoxyphenyl)-[1,2,4]triazolo[3,4-b][1,3,4]thiadiazol-6-yl)-N,N-dimethylaniline] | – | – | – | Anti-DENV Activity at 1 uM (SNB-19 cells) (dengue virus; 1 uM): No; Anti-DENV Activity at 10 uM (SNB-19 cells) (dengue virus; 10 uM): No; IC50 (Zika virus; Zika virus, Vero): > 30 µM
O=C(Nc1cccnc1)c1cccs1 [NCGC00072088-02, N-(pyridin-3-yl)thiophene-2-carboxamide] | No | Yes | 2.35 | –
CCOc1ccc(N2C(=O)c3[nH]nc(-c4cccs4)c3C2c2cccc(F)c2)cc1 (centres unmarked) [NCGC00102779-01, 5-(4-ethoxyphenyl)-4-(3-fluorophenyl)-3-(thiophen-2-yl)-4,5-dihydropyrrolo[3,4-c]pyrazol-6(lH)-one] | No | No | 9.24 | –
COCCn1c(=O)[nH]c2cc(C(=O)NCc3ccccc3Cl)ccc2c1=O [NCGC00104879-01, N-(2-chlorobenzyl)-3-(2-methoxyethyl)-2,4-dioxo-1,2,3,4-tetrahydroquinazoline-7-carboxamide] | No | No | – | IC50 (Zika virus; [4]): > 30 µM
COc1cc(C2CC(=O)Nc3cc4c(cc32)OCCO4)cc(Br)c1OC (centres unmarked) [NCGC00107055-01, 9-(3-bromo-4,5-dimethoxyphenyl)-2,3,8,9-tetrahydro-[1,4]dioxino[2,3-g]quinolin-7(6H)-one] | No | No | 0.0285 | –
CCOC(=O)c1ccc(N2C(=O)c3[nH]nc(-c4ccc(OC)cc4)c3C2c2ccc(C)cc2)cc1 (centres unmarked) [NCGC00108525-01, ethyl 4-(3-(4-methoxyphenyl)-6-oxo-4-(p-tolyl)-4,6-dihydropyrrolo[3,4-c]pyrazol-5(1H)-yl)benzoate] | No | Yes | – | IC50 (Zika virus; Zika virus, Vero): 0.137 µM
CCOC(=O)c1ccc(N2C(=O)c3[nH]nc(-c4ccco4)c3C2c2ccc(C)cc2)cc1 (centres unmarked) [NCGC00108581-01, ethyl 4-(3-(furan-2-yl)-6-oxo-4-(p-tolyl)-4,6-dihydropyrrolo[3,4-c]pyrazol-5(1H)-yl)benzoate] | No | Yes | 2.42 | –
CC1=Nc2cc(C(=O)NCc3ccccc3Cl)ccc2Sc2c(C)ccc(C)c21 [NCGC00112058-01, N-(2-chlorobenzyl)-1,4,11-trimethyldibenzo[b,f][1,4]thiazepine-8-carboxamide] | No | No | – | IC50 (Zika virus; [4]): > 30 µM
COC(=O)c1cc2occc2n1Cc1nc(-c2ccc(C)cc2)oc1C [NCGC00113159-01, methyl 4-[[5-methyl-2-(4-methylphenyl)-1,3-oxazol-4-yl]methyl]furo[3,2-b]pyrrole-5 - carboxylate] | No | No | – | IC50 (Zika virus; [4]): > 30 µM
CC(C)(C)c1ccc(C(=O)Nc2ccc3c(c2)CCCN3C(=O)c2cccs2)cc1 [NCGC00131231-01, 4-(tert-butyl)-N-(1-(thiophene-2-carbonyl)-1,2,3,4-tetrahydroquinolin-6-yl)benzamide] | No | No | 7.6 | –
CCC(C)C1NC(=O)C2CCCN2C(=O)C(CC(C)C)OC(=O)CCNC(=O)C(C)N(C)C(=O)C(C(C)C)N(C)C1=O (centres unmarked) [NCGC00169957-03, 3-(sec-butyl)-16-isobutyl-6-isopropyl-5,8,9-trimethyldodecahydropyrrolo[1,2-d][l]oxa[4,7,10,13,16] pentaazacyclononadecine-1,4,7,10,14,17(11H,16H)-hexaone] (cyclo([ξLac(3-iPr)]PI[NMeV][NMeA][βAla]); configuration not given here) | – | – | – | Anti-DENV Activity at 1 uM (SNB-19 cells) (dengue virus; 1 uM): No; Anti-DENV Activity at 10 uM (SNB-19 cells) (dengue virus; 10 uM): Yes; IC50 (Zika virus; Zika virus, Vero): 0.613 µM
CC(=O)OC[C@]12CCC(C)=C[C@H]1O[C@@H]1[C@H](O)[C@@H](OC(C)=O)[C@@]2(C)[C@]12CO2 [NCGC00179895-03, ((2S,2′R,3′R,4′S,5′S,5a′R,9a′R)-4′-acetoxy-3′-hydroxy-5′,8′-dimethyl-2′,3′,4′,5′,7′,9a′-hexahydrospiro[oxirane-2,10′-[2,5]methanobenzo[b]oxepin]-5a′(6′H) - yl)methyl acetate] | – | – | – | Anti-DENV Activity at 1 uM (SNB-19 cells) (dengue virus): Yes; Anti-DENV Activity at 10 uM (SNB-19 cells) (dengue virus): Yes
O=c1nc[nH]c2c1ccn2C1OC(CO)C(O)C1O (centres unmarked) [NCGC00246910-02, 7-(3,4-dihydroxy-5-(hydroxymethyl)tetrahydrofuran-2-yl)-1,7-dihydro-4H-pyrrolo[2,3-d]pyrimidin-4-one] | No | Yes | 0.27 | –
O=c1[nH]c(=O)n(C2C[C@@H](O)[C@@H](CO)O2)cc1F (stereo partly drawn) [NCGC00263862-02, 5-fluoro-l-((4R,5R)-4-hydroxy-5-(hydroxymethyl)tetrahydrofuran-2-yl)pyrimidine-2,4(1H,3H)-dione] | No | No | 0.0165 | –
O=C1N[C@@H]2C(=C[C@H](O)[C@@H](O)[C@H]2O)c2cc3c(c(O)c21)OCO3 [NCGC00357393-02, (2S,3R,4S,4aR)-2,3,4,7-tetrahydroxy-3,4,4a,5-tetrahydro-[1,3]dioxolo[4,5-j] phenanthridin-6(2H)-one] | – | – | – | Anti-DENV Activity at 1 uM (SNB-19 cells) (dengue virus; 1 uM): Yes; Anti-DENV Activity at 10 uM (SNB-19 cells) (dengue virus; 10 uM): Yes; IC50 (Zika virus): 0.000674 µM
CC[C@H](C)[C@@H]([C@@H](CC(=O)N1CCC[C@H]1[C@H](OC)[C@@H](C)C(=O)N[C@@H](Cc1ccccc1)c1nccs1)OC)N(C)C(=O)[C@@H](NC(=O)[C@H](C(C)C)N(C)C)C(C)C [NCGC00378623-01, (S)-2-((S)-2-(dimethylamino)-3-methylbutanamido)-N-((3R,4S,5S)-3-methoxy-1-((S)-2-((1R,2R)-1-methoxy-2-methyl-3-oxo-3-(((S)-2-phenyl-1-(thiazol-2-yl)ethyl)amino)propyl)pyrrolidin-1-yl)-5-methyl-1-oxoheptan-4-yl)-N,3-dimethylbutanamide] | No | No | – | –
CC(=O)OC[C@]12C[C@H](OC(=O)CC(C)C)C(C)=C[C@H]1O[C@@H]1[C@H](O)[C@@H](OC(C)=O)[C@@]2(C)[C@]12CO2 [NCGC00387651-01, (2S,2′R,3′R,4′S,5′S,5a′R,7′S,9a′R)-4′-acetoxy-5a′-(acetoxymethyl)-3′-hydroxy-5′,8′-dimethyl-2′,3′,4′,5′,5a′,6′,7′,9a′-octahydrospiro[oxirane-2,10′-[2,5]methanobenzo[b]oxepin]-7′-yl 3 - methylbutanoate] | – | – | – | Anti-DENV Activity at 1 uM (SNB-19 cells) (dengue virus): Yes; Anti-DENV Activity at 10 uM (SNB-19 cells) (dengue virus): Yes
